Test results published in patent US20160311788A1, “Antifouling Compounds And Use Thereof” (National University of Singapore, priority 2008, published 2016).
Converted amounts (≈) assume the structure as drawn.

What was measured:
[1] = tested on: marine bacteria strain S29; experiment: disc inhibition assay, strain S29; format: cell-based, Bacillus hwajinpoensis
Outline: (§1)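 50 μg compound/6 mm disc (from 2 mg/ml DMSO stock); DMSO blank disc control. Lawn swabbed on Marine Agar from marine broth culture. Overnight, 35° C, dark. Readout: inhibition zone diameter (calipers), mean of 2 replicates.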

[2] = tested on: marine bacteria strain S1; experiment: disc inhibition assay, strain S1; format: cell-based, Rhodovulum iodosum; conditions: strain 1, 50 μg of compound per disc
Outline: as §1

[3] = tested on: Stage II nauplii of Balanus amphitrite; experiment: barnacle toxicity assay; format: in vivo; conditions: Table 3(a); concentration that caused 50% mortality, 22 to 24 hours, Stage II nauplii
Description: (§2) Pure compounds were suspended in DMSO and sonicated to obtain a stock solution of 50 mg ml^−1 in DMSO. This stock solution is stored at −20° C. in 4 ml amber screw cap vials. For the bioassays, a small volume of stock solution was added to 1 μm filtered seawater in a glass scintillation vial. This suspension was then sonicated around 10 minutes. Serial dilutions were generated to the required range of concentrations. Serial dilution of the equivalent amounts of DMSO in seawater was used as the control.
(§3) The barnacle bioassay method used follows from the method first introduced by Rittschof et al. (1992), and subsequently by other authors (Willemsen et al., 1998). This method is now standard practice for many antifouling screening of novel compounds.
Toxicity assays were modified from Rittschof et al. (1992). Stage II naupliar larvae used in tests were obtained from Balanus amphitrite adults collected from inter-tidal rock walls at Kranji mangrove, Singapore. Larvae were collected from a container of adults by attraction to a point source of light and transferred to 500 ml of fresh seawater. Next, larvae were re-concentrated with a fiber optic light and added to assays.
Duplicate assays were conducted in 2 ml glass vials (La Pha Pack® PN 11-14-0544) in 1 ml of filtered seawater for 22 to 24 hours. The assays were repeated for confirmation. There were two sets of controls, a blank control consisting of 3 tubes of seawater only, and DMSO control consisting of the equivalent dilution series with DMSO without compound). For the compounds, there were 3 tubes of each for each test concentration. The assay was initiated by addition of barnacle naupliar in 50 μl of seawater. After 22 to 24 hours of incubation at 25-27° C. solutions containing test animals were transferred to a Bogorov tray and scored as living or dead. Moribund larvae were scored as dead. Results were confirmed by repeating the assay. Data were combined and the concentration that caused 50% mortality (LD50) was calculated by probit analysis using a basic computer program (Libermann, 1983). If data were not appropriate for probit analysis, the LD50 was estimated from graphed data.

[4] = tested on: marine bacteria strain S4; experiment: disc inhibition assay, strain S4; format: cell-based, Bacillus algicola
Outline: as §1

[5] = tested on: marine bacteria strain S27; experiment: disc inhibition assay, strain S27; format: cell-based, Tenacibaculum lutimaris
Outline: as §1

[6] = tested on: cyprids of Balanus amphitrite; experiment: barnacle settlement assay; format: in vivo; conditions: Amphibalanus amphitrite, 24 h, read-out: ED50, Table 3(a); concentration that caused 50% settlement inhibition, 24 hours, cyprids
Description: as §2, §3
Barnacle settlement assays were based on methodology from Rittschof et al. (1992). Barnacle larvae from field-collected adults were reared on an algal mixture of 1:1 v/v of Tetraselmis suecica and Chaetoceros muelleri at 25° C., at approximately 5×10^5 cells per ml density. On this regime, larvae metamorphose to cyprids in 5 days. These cyprids were aged at 4° C. for 2-3 days, and 45-70% settlement after 24 hours (Willemsen et al., 1998).
Settlement tests were conducted in 7 ml neutral glass vials (Samco® T1 03N1) 34 mm by 23 mm diameter, with 20-40 cyprids per well. Test solutions were made up to twice the required final concentration. 0.5 ml of test solution was added into each well, and cyprids were transferred into each well in 0.5 ml of seawater. Assays were done in triplicate. As before, there were two sets of controls, a blank control consisting 3 tubes of seawater only, and DMSO control consisting of the equivalent dilution series with DMSO without compound. After 24 hours, larvae that had attached and metamorphosed were enumerated and the result expressed as percentage settlement. Larvae not attached were scored as not settled. The assays were repeated and the concentration that caused 50% settlement inhibition (ED50) was determined by pro bit analysis using a basic computer program (Lieberman, 1983), or by estimation from graphed data.

[7] = tested on: marine bacteria strain S9; experiment: disc inhibition assay, strain S9; format: cell-based, Bacillus algicola
Outline: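 Compounds were dissolved at 2 mg/ml in DMSO (stock) and 50 μg loaded per 6 mm disc, with DMSO-only discs as control. Discs went onto Marine Agar lawns swabbed from marine broth cultures, plates were incubated overnight in the dark at 35° C, and clearing-zone diameter was measured by calipers, averaged over two replicates.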

[8] = tested on: marine bacteria strain S3; experiment: disc inhibition assay, strain S3; format: cell-based, Erythrobacter aquimaris; conditions: Qipengyuania aquimaris, S3, 24 h
Outline: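 Antibacterial susceptibility was measured by agar disc diffusion. Compounds dissolved in DMSO were applied to 6 mm sterile discs and laid on Marine Agar lawns of a Singapore coastal marine bacterium cultured in marine broth. After overnight dark incubation at 35° C, clearing zone diameters were measured with Vernier calipers, and the two replicates were averaged.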

[9] = tested on: marine bacteria strain S28; experiment: disc inhibition assay, strain S28; format: cell-based, Arthrobacter protophormial
Outline: as §1

[10] = tested on: marine bacteria strain S16; experiment: disc inhibition assay, strain S16; format: cell-based, Pseudoalteromonas piscicida; conditions: strain 16, 50 μg of compound per disc
Outline: as §1

[11] = tested on: marine bacteria strain S30; experiment: disc inhibition assay, strain S30; format: cell-based, Bacillus borophilicus
Outline: as §1

[12] = tested on: marine bacteria strain S18; experiment: disc inhibition assay, strain S18; format: cell-based, Microbacterium esteraromaticum
[13] = tested on: marine bacteria strain S17; experiment: disc inhibition assay, strain S17; format: cell-based, Gordonia terrae
Outline: as §1

[14] = tested on: marine bacteria strain S10; experiment: disc inhibition assay, strain S10; format: cell-based, Halobacillus trueperi
Outline: as §1

[15] = tested on: marine bacteria strain S14; experiment: disc inhibition assay, strain S14; format: cell-based, Vibrio probioticus; conditions: strain 14, 50 μg of compound per disc

CN(C)C(=O)C(CCN1CCC(O)(c2ccc(Cl)cc2)CC1)(c1ccccc1)c1ccccc1 [LOP, loperamide, reference compound] was tested, and the zone of inhibition at 50 µg/disc ([1]; Guptibacillus hwajinpoensis, S29, 24 h) was 5 to 10 mm, the zone of inhibition [2] was “−” and the LD50 [3] was 1.56 µg/mL. For the same compound, the zone of inhibition at 50 µg/disc ([4]; Guptibacillus algicola, S4, 24 h) was 5 to 10 mm, the zone of inhibition at 50 µg/disc ([5]; Tenacibaculum lutimaris, S27, 24 h) was 5 to 10 mm and the IC50 [6] was 0.37 µg/mL (≈ 0.776 µM). The zone of inhibition at 50 µg/disc ([7]; Guptibacillus algicola, S9, 24 h) was 5 to 10 mm, the zone of inhibition at 50 µg/disc [8] was over 10 mm and the zone of inhibition at 50 µg/disc ([9]; Arthrobacter, S28, 24 h) was 5 to 10 mm. For the same compound, the zone of inhibition [10] was “−”, the zone of inhibition at 50 µg/disc ([11]; Bacillus, S30, 24 h) was 2 to 5 mm and the zone of inhibition at 50 µg/disc ([12]; Microbacterium esteraromaticum, S18, 24 h) was over 10 mm. The zone of inhibition at 50 µg/disc ([13]; Gordonia terrae, S17, 24 h) was 5 to 10 mm, the zone of inhibition at 50 µg/disc ([14]; Halobacillus trueperi, S10, 24 h) was 5 to 10 mm and the zone of inhibition [15] was “−”.

CN(C)C(=O)C(c1ccccc1)c1ccccc1 [Compound 3.1, diphenamid, reference compound] was tested, and the zone of inhibition ([1]; strain 29, 50 μg of compound per disc) was “−”, the zone of inhibition [2] was “−” and the LD50 [3] was over 50 µg/mL. For the same compound, the zone of inhibition ([4]; strain 4, 50 μg of compound per disc) was “−”, the zone of inhibition ([5]; strain 27, 50 μg of compound per disc) was “−” and the IC50 [6] was 15.1 µg/mL (≈ 63.1 µM). For the same compound, the zone of inhibition ([7]; strain 9, 50 μg of compound per disc) was “−”, the zone of inhibition at 50 µg/disc [8] was 2 to 5 mm and the zone of inhibition ([9]; strain 28, 50 μg of compound per disc) was “−”. For the same compound, the zone of inhibition [10] was “−”, the zone of inhibition ([11]; strain 30, 50 μg of compound per disc) was “−” and the zone of inhibition ([12]; strain 18, 50 μg of compound per disc) was “−”. The zone of inhibition ([13]; strain 17, 50 μg of compound per disc) was “−”, the zone of inhibition ([14]; strain 10, 50 μg of compound per disc) was “−” and the zone of inhibition [15] was “−”.
